Reference: patent publication US8198323B2, “Curcumin analogues and uses thereof” (The University of North Carolina at Chapel Hill, priority 2004, dated 2012)
Substitutions are numbered along the chain they refer to. “Also recorded” adds a separate entry of the source. One block for each molecule: values may come before it.

Key:
Assay type in all cases: cell-based
wild type AR [1] = target: T1, wild type AR (Homo sapiens, UniProt P10275); experiment: AR transactivation assay (MMTV-luciferase), PC-3 cells transfected with wild-type AR; design: expressed in transfected cells; host or cells: PC-3; conditions: PC-3 cell assay system; FIG. 3A
T1 sequence (P10275 1-920): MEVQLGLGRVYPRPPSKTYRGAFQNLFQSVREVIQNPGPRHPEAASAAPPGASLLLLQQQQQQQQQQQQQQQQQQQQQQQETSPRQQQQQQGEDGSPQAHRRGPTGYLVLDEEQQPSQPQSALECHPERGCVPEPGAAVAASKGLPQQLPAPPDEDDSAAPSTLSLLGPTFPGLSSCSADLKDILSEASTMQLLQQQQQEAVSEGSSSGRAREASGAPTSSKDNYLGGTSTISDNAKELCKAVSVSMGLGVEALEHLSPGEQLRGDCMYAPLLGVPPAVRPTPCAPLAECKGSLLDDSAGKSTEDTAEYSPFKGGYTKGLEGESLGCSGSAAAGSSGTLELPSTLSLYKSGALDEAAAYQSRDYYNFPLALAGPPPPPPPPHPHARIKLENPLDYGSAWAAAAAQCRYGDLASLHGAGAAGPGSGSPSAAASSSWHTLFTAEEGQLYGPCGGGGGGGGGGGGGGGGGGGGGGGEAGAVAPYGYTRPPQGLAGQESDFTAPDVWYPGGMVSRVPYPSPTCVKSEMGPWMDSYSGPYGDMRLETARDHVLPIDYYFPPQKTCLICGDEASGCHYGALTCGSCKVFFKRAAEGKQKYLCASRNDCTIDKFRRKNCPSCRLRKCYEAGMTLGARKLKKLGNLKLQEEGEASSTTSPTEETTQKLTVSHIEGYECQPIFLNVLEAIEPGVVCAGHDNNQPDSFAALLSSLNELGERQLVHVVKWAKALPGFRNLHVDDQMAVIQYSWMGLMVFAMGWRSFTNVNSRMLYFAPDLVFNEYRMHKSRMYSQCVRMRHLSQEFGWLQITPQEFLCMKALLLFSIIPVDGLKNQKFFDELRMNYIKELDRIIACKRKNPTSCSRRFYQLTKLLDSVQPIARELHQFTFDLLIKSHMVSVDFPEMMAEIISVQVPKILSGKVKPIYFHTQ
Protocol: (§1) Cell Culture and Transfections. Human prostate cancer DU145 and PC-3 cells were maintained in Dulbecco's minimum essential medium (DMEM) containing penicillin (25 units/mL), streptomycin (25 μg/mL), and 10% fetal calf serum (FCS). For AR transactivation assay, PC-3 cells were transfected with an AR expression plasmid and reporter gene. Because of a low content of endogenous AR coactivators, DU-145 cells were transfected with expression plasmids for AR and ARA70, and reporter gene.
Transfections were performed using the SuperFect kit according to manufacturer's procedures (Qiagen, Chatsworth, Calif.). Briefly, 1×10^5 cells were plated on 35-mm dishes 24 h before transfection, and then a reporter plasmid, MMTV-Luciferase, which contains MMTV-LTR promoter and AR-binding element, was co-transfected with an AR expression plasmid (wild type or mutant), or pSG5ARA70. PRL-TK was used as an internal control for transfection efficiency. The total amount of DNA was adjusted to […] with pSG5 in all transcriptional activation assays. After a 2 h transfection, the medium was changed to DMEM-10% charcoal stripped serum medium, and 14-16 h later, the cells were treated with DHT, antiandrogen, or test compounds. After another 14-16 h, the cells were harvested and tested for luciferase activity in luciferase assays (Promega, Dual Luciferase Assay System, Madison, Wis.). […]

wild type AR [2] = target: T1, wild type AR; experiment: AR transactivation assay (MMTV-luciferase), DU-145 cells transfected with wild-type AR and ARA70; design: expressed in transfected cells; host or cells: DU-145; conditions: FIG. 3C; for antiandrogen activity (in words): DU-145 cells, wild-type AR and ARA70; for reduction (antiandrogen activity): DU-145 cells transfected with wild-type AR and ARA70
Protocol: as §1
(§2) Transfections were performed using the SuperFect kit according to manufacturer's procedures (Qiagen, Chatsworth, Calif.). Briefly, 1×10^5 cells were plated on 35-mm dishes 24 h before transfection, and then a reporter plasmid, MMTV-Luciferase, which contains MMTV-LTR promoter and AR-binding element, was co-transfected with an AR expression plasmid (wild type or mutant), or pSG5ARA70. PRL-TK was used as an internal control for transfection efficiency. The total amount of DNA was adjusted to […] with pSG5 in all transcriptional activation assays. After a 2 h transfection, the medium was changed to DMEM-10% charcoal stripped serum medium, and 14-16 h later, the cells were treated with DHT, antiandrogen, or test compounds. After another 14-16 h, the cells were harvested and tested for luciferase activity in luciferase assays (Promega, Dual Luciferase Assay System, Madison, Wis.). Data were expressed in relative luciferase activity as compared to an internal luciferase positive control.

mutant LNCaP AR = target: T2, mutant LNCaP AR (Homo sapiens, UniProt P10275, T878A); experiment: AR transactivation assay (MMTV-luciferase), DU-145 cells transfected with mutant LNCaP AR and ARA70; conditions: FIG. 3B
T2 construct: expressed in transfected cells; host or cells: DU-145
T2 sequence (P10275 1-920 T878A): T1 sequence (P10275 1-920) with T878A
Protocol: Cell Culture and Transfections. Human prostate cancer DU145 and PC-3 cells were maintained in Dulbecco's minimum essential medium (DMEM) containing penicillin (25 units/mL), streptomycin (25 μg/mL), and 10% fetal calf serum (FCS). For AR transactivation assay, PC-3 cells were transfected with an AR expression plasmid and reporter gene. Because of a low content of endogenous AR coactivators, DU-145 cells were transfected with expression plasmids for AR and ARA70, and reporter gene. The conditions were followed as previously described in Miyamoto et al., Proc. Natl. Acad. Sci. USA, 95, 7379-7384 (1998), with minor modifications.
as §2

mutant AR in LNCaP cells = target: T3, mutant AR in LNCaP cells (Homo sapiens, UniProt P10275, T878A); experiment: LNCaP AR transactivation assay / LNCaP cell growth assay (Table 2); conditions: 1 nM DHT, symbols 0, +, ++ not defined
T3 construct: LNCaP cells, which express a clinically relevant mutant AR; endogenous in cells; host or cells: LNCaP
T3 sequence (P10275 1-920 T878A): T1 sequence (P10275 1-920) with T878A
Protocol: (§3) Cell culture and transfection—Human prostate cancer LNCaP and PC-3 cells were maintained in RPMI medium and Dulbecco's minimum essential medium (DMEM), respectively. Both media were strengthened with penicillin (25 units/mL), streptomycin (25 μg/mL), and 10% fetal calf serum. Androgen receptor transactivation assay, an androgen-dependent reporter gene transcription test, was employed as the primary screening for potential antiandrogen identification. This assay was first performed in LNCaP cells, which express a clinically relevant mutant AR. Once potential compounds were indicated by LNCaP AR transactivation assay, they were re-examined for their potential activity against wild type AR. Wild type AR transactivation assay was performed in PC-3 host cells, which lack an endogenous, functional AR.
(§4) Our previously described conditions for cell transfection were followed (Ohtsu et al, J Medicinal Chem 45: 5037-5042 (2002); Ohtsu et al., Bioorganic & Medicinal Chemistry 11:5083-5090 (2003)). In brief, cells were plated in 24- or 48-well tissue culture dishes twenty-four (PC-3 cells) or forty-eight (LNCaP cells) hours prior to transfection. Subsequently, LNCaP cells were transfected with a reporter gene, MMTV-luciferase, which contains MMTV-LTR promoter and androgen receptor binding element, and PRL-SV40, which served as an internal control for transfection efficiency. PC-3 cells were transfected with a wild type AR expression plasmid, pSG5AR, in addition to the above-mentioned MMTV-luciferase reporter gene and PRL-SV40 internal control. SuperFect (Qiagen, Chatsworth, Calif.) was employed as the transfection reagent following manufacturer's recommendations. At the end of a five-hour transfection, the medium was changed to DMEM or RPMI supplemented with 10% charcoal dextran-stripped, androgen-depleted serum. Twenty-four hours later, the cells were treated with 1 nM of DHT and/or test compounds at the designated concentration for another twenty-four hours. The cells were harvested for luciferase activity assay using Dual Luciferase Assay System (Promega, Madison, Wis.). The derived data were expressed as relative luciferase activity normalized to the internal luciferase control. DHT incubation induced a marked expression of reporter gene.
LNCaP cell growth assay thus was used as an alternative to confirm potential antiandrogens identified by the above-mentioned AR transactivation assay. An MTT analysis, relying upon the conversion of a colorless substrate to reduced tetrazolium by the mitochondrial dehydrogenase, was used. The experimental conditions were detailed elsewhere (Ohtsu et al., Bioorganic & Medicinal Chemistry 11:5083-5090 (2003)). Briefly, cells were plated in 96-well tissue culture plates and then incubated for 5 consecutive days in the presence of 1 nM of DHT and/or test compounds in 10% charcoal dextran-stripped serum-containing RPMI. At the end of incubation, the cells were given MTT (5 mg/ml in PBS) for three hours at 37° C. The resultant precipitate was dissolved in a lysis buffer and then quantitated at a wavelength of 595 nm using a microplate reader. To ensure the accuracy of data derived from the MTT analysis, cell count was performed using duplicate samples.

wild type AR [3] = target: T1, wild type AR; experiment: Wild type AR transactivation assay in PC-3 host cells (Table 2); design: expressed in transfected cells; host or cells: PC-3; conditions: PC-3 cells transfected with wild type AR, 1 nM DHT; symbols 0, +, ++ not defined
Protocol: as §3, §4

SMILES: COc1cc(/C=C/C(=O)/C=C(O)/C=C/c2ccc(O)c(OC)c2)ccc1O [Compound 1, Curcumin]
antagonistic activity against the AR (in words) (wild type AR [1]): inactive | antiandrogen activity (in words) (wild type AR [2]): inactive; also recorded: not active | antagonistic activity against the AR (in words) (mutant LNCaP AR): inactive

antagonistic activity against the AR (in words) (mutant LNCaP AR): significantly less active than 4
SMILES: COc1cc(C=CC(=O)CC(=O)C=Cc2ccc(OC)c(OC)c2)ccc1O [Compound 9, Monomethylcurcumin]

reduction (antiandrogen activity) (wild type AR [2]): 54%
SMILES: COC(=O)COc1ccc(C=CC(=O)CC(=O)C=Cc2ccc(OCC(=O)OC)c(OC)c2)cc1OC [Compound 20]
antiandrogen activity (in words) (wild type AR [2]): comparable or more potent antiandrogen activity than HF

reduction (antiandrogen activity) (wild type AR [2]): 53.8%
SMILES: CCOC(=O)CCC(C(=O)C=Cc1ccc(O)c(OC)c1)C(=O)C=Cc1ccc(O)c(OC)c1 (centres unmarked) [Compound 22]
antiandrogen activity (in words) (wild type AR [2]): comparable or more potent antiandrogen activity than HF

antagonistic activity against the AR (in words) (wild type AR [1]): less active than 4 | antagonistic activity against the AR (in words) (mutant LNCaP AR): less active than 4
SMILES: COc1ccc(C(=O)CC(=O)c2ccc(OC)c(OC)c2)cc1OC [Compound 39, 1,3-bis(3,4-dimethoxyphenyl)-1,3-propandione]
antiandrogen activity (in words) (wild type AR [2]): comparable or more potent antiandrogen activity than HF

anti-AR activity, LNCaP (mutant AR in LNCaP cells): 0
SMILES: COc1ccc(/C=C/C(=O)/C=C(O)/C=C/c2ccc(OC)cc2F)c(F)c1 [HOJ-9]

anti-AR activity, wrAR/PC3 (wild type AR [3]): 0
SMILES: O=C(/C=C(O)/C=C/c1ccc(O)o1)/C=C/c1ccc(O)o1 [LL-7]

SMILES: COc1cc(/C=C/C(=O)/C=C/c2ccc(O)c(OC)c2)ccc1O [LL-10]
anti-AR activity, wrAR/PC3 (wild type AR [3]): 0

anti-AR activity, LNCaP (mutant AR in LNCaP cells): 0
SMILES: COc1cc(/C=C/C(O)=C/C(=O)/C=C/c2ccc(OC)c(OC)c2)ccc1O [LL-17]

SMILES: COc1cc(/C=C/C(O)=C/C(=O)/C=C/c2ccc(O)cc2)ccc1O [LL-18]
anti-AR activity, LNCaP (mutant AR in LNCaP cells): 0

anti-AR activity, LNCaP (mutant AR in LNCaP cells): 0
SMILES: COc1ccc(/C=C/C(=O)/C=C(O)/C=C/c2ccc(OC)c(O)c2)cc1O [LL-27B]

anti-AR activity, LNCaP (mutant AR in LNCaP cells): 0
SMILES: COc1ccc(/C=C/C(=O)/C=C(O)/C=C/c2ccc(OC)c(OC)c2OC)c(OC)c1OC [LL-32B]

anti-AR activity, LNCaP (mutant AR in LNCaP cells): 0
SMILES: COc1ccc(/C=C/C(=O)/C=C(O)/C=C/c2ccc(OC)c(OC)c2OC)cc1OC [LL-35]

anti-AR activity, LNCaP (mutant AR in LNCaP cells): 0
SMILES: COc1cc(OC)c(OC)cc1/C=C/C(O)=C/C(=O)/C=C/c1ccc(OC)c(OC)c1 [LL-36]

SMILES: COc1ccc(/C=C/C(=O)CC(O)/C=C/c2ccc(OC)c(OC)c2)cc1OC (centres unmarked) [LL-55]
anti-AR activity, wrAR/PC3 (wild type AR [3]): 0

anti-AR activity, wrAR/PC3 (wild type AR [3]): 0
SMILES: COc1ccc(/C=C/C(=O)C(C)(F)C(=O)/C=C/c2ccc(OC)c(OC)c2)cc1OC [LL-62]

anti-AR activity, wrAR/PC3 (wild type AR [3]): 0
SMILES: CCOC(=O)/C=C/C(C(=O)/C=C/c1ccc(O)c(OC)c1)=C(O)\C=C\c1ccc(O)c(OC)c1 [LL-66]
